The source of these data is patent publication US10562857B2 (AFASCI, Inc., priority 2015, dated 2020).

What all share (conditions): Table 2
One experiment deals with T1, Cav3.1 (Homo sapiens, UniProt O43497).
T1 construct: expressed in transfected cells; host or cells: HEK-293, tetracycline inducible expression system (Invitrogen)
As to the kind of experiment: Whole-cell patch clamp of T-type Cav3.1 channel expressed in HEK293 cells. It is filed as cell-based. As to the method: Cav3.1, Cav3.2 or Cav3.3 channels were expressed in human embryonic kidney (HEK)-293 cells using a tetracycline inducible expression system (Invitrogen). Cells were maintained in 25 cm^2 tissue culture flasks at 37° C., 5% CO2, and 100% relative humidity in D-MEM/F12 (Dulbecco's Modified Eagle Medium/Nutrient Mixture F-12; Gibco) supplemented with fetal bovine serum (FBS, 10% v/v), sodium pyruvate (0.5 mM, Gibco), penicillin-streptomycin (100 U/mL, 100 μg/mL) and Geneticin® Selective antibiotic (G418; 0.5 mg/mL). Cells were detached from the flask base using a non-enzymatic cell dissociation solution (Cellstripper, Corning), removed and re-seeded on to poly-D-lysine coated glass coverslips in 35 mm dishes.
Whole-cell voltage clamp recordings were performed on rat or mouse DRG neurons within 2 days after acutely dissociation or cultured HEK293 cells expressing T-type channels (encoded by Cav3.1, Cav3.2 or Cav3.3 channels). All experiments were performed at room temperature (around 21° C.). Whole-cell currents were recorded using a MultiClamp 700B amplifier and analyzed offline with pCLAMP10.4 software (Molecular Devices, LLC, Sunnyvale Calif., USA). […] Since the sodium ions were absent in the external solution, tetrodoctoxin was not needed. Calcium currents were recorded at a holding potential of −100 mV and then depolarized to −30 mV for 100 ms to activate either Cav3.1, Cav3.2, or Cav3.3 expressed in HEK cells. An interpulse interval of 10 seconds allowed the channel recovery from inactivation, and achieved stable current recordings. To record sodium (Na^+) currents in DRG neurons, the external solution used the modified Krebs solution specified above. The internal solution was composed (in mM) of 120 CsF, 10 HEPES, 11 EGTA, 1 CaCl2, 1 MgCl2, 10 TEA-Cl, 4 MgATP and 0.3 MgGTP (pH 7.3-7.4 adjusted with CsOH). […] To record potassium currents in DRG neurons, the external solution used the modified Kreb's solution specified above. The internal solution was composed (in mM) of 65 KCl, 80 KF, 5 KOH, 10 EGTA, 2 MgATP (pH 7.3-7.4 adjusted with KOH). Recording electrodes were fabricated using a P-87 puller (Sutter Instrument Co., Novato, Calif., USA). The tip of resistance was 3-4 MQ in bath and the series resistance was less than 10 MΩ after whole cell configuration. All reagents were purchased from Sigma unless specified otherwise. Test compounds were usually applied via a rapid solution exchange system with 8 fine polyplastic tubings (100 μm, OD) glued in a holder in parallel and located closely to the recorded cells. The current responses were normalized to the control, percent inhibition was calculated and sigmoidal dose-response curves were generated using XLFit (IDBS, Surrey, UK) or Prism (GraphPad Software, La Jolla, Calif., US) to calculate IC50 values and Hill slopes using the following equation Y=Bottom+(Top−Bottom)/(1+10^((Log EC50−X)[…])).

Experiment [1] deals with Cav2.2 (N-type Ca channel) (Homo sapiens, UniProt Q00975). Briefly: Patch clamp of Cav2.2 N-type Ca channel. It is filed as cell-based.
A further experiment relates to DRG ion channels Na+. As to the kind of experiment: Sodium currents in DRG neurons, patch clamp. It is filed as cell-based, rodent. The method, then:
(§1) All the procedures related to animal handling were in strict accordance with NIH guidelines and IACUC approved protocols. Briefly, the spine was taken out and split into two halves from the middle line after sacrificing the mice by decapitation. […] The DRG neurons were minced with fine scissors and incubated at 35° C. for 50 min. […] Finally the cells were dispersed onto poly-1-ornithine-coated cover slips and maintained in a modified Krebs solution with streptomycin sulfate (0.2 mM), Penicillin G Sodium (0.3 mM), and Gentamycin (0.1 mM) at 21° C. […] All experiments were performed at room temperature (around 21° C.). Whole-cell currents were recorded using a MultiClamp 700B amplifier and analyzed offline with pCLAMP10.4 software (Molecular Devices, LLC, Sunnyvale Calif., USA). […] The internal solution was composed (in mM) of 125 CsCl, 10 HEPES (acid), 10 EGTA (ethylene glycol tetraacetic acid), 1 CaCl2, 1 MgCl2, 4 MgATP and 0.3 […] 7.3-7.4 adjusted with CsOH; osmolality verified as 295 mOsm/kg). Since the sodium ions were absent in the external solution, tetrodoctoxin was not needed. […] To record sodium (Na^+) currents in DRG neurons, the external solution used the modified Krebs solution specified above. […] To record potassium currents in DRG neurons, the external solution used the modified Kreb's solution specified above. The internal solution was composed (in mM) of 65 KCl, 80 KF, 5 KOH, 10 EGTA, 2 MgATP (pH 7.3-7.4 adjusted with KOH). Recording electrodes were fabricated using a P-87 puller (Sutter Instrument Co., Novato, Calif., USA). […] All reagents were purchased from Sigma unless specified otherwise. […] Selectivity among the three subtypes of the Cav3 T-type channel, and off-target effects on other key ion channels of the representative example compounds are presented in Table 2. Sodium and potassium channels in the rodent DRG neurons were recorded and tested as described above. The human ether-a-go-go-related gene (hERG) encodes the rapidly activating potassium channel (IKr) contributing to the repolarization of the cardiac action potential. The blockade of hERG can lead to a QT prolongation in the electrocardiogram known as long QT syndrome (Sanguinetti, et al., 1995). Therefore the representative example compounds in Table 2 were tested against the hERG channel.

Another experiment deals with DRG ion channels K+. Briefly: Potassium currents in DRG neurons, patch clamp. It is filed as cell-based, rodent. As to the method: as §1

T1 sequence (O43497 whole entry): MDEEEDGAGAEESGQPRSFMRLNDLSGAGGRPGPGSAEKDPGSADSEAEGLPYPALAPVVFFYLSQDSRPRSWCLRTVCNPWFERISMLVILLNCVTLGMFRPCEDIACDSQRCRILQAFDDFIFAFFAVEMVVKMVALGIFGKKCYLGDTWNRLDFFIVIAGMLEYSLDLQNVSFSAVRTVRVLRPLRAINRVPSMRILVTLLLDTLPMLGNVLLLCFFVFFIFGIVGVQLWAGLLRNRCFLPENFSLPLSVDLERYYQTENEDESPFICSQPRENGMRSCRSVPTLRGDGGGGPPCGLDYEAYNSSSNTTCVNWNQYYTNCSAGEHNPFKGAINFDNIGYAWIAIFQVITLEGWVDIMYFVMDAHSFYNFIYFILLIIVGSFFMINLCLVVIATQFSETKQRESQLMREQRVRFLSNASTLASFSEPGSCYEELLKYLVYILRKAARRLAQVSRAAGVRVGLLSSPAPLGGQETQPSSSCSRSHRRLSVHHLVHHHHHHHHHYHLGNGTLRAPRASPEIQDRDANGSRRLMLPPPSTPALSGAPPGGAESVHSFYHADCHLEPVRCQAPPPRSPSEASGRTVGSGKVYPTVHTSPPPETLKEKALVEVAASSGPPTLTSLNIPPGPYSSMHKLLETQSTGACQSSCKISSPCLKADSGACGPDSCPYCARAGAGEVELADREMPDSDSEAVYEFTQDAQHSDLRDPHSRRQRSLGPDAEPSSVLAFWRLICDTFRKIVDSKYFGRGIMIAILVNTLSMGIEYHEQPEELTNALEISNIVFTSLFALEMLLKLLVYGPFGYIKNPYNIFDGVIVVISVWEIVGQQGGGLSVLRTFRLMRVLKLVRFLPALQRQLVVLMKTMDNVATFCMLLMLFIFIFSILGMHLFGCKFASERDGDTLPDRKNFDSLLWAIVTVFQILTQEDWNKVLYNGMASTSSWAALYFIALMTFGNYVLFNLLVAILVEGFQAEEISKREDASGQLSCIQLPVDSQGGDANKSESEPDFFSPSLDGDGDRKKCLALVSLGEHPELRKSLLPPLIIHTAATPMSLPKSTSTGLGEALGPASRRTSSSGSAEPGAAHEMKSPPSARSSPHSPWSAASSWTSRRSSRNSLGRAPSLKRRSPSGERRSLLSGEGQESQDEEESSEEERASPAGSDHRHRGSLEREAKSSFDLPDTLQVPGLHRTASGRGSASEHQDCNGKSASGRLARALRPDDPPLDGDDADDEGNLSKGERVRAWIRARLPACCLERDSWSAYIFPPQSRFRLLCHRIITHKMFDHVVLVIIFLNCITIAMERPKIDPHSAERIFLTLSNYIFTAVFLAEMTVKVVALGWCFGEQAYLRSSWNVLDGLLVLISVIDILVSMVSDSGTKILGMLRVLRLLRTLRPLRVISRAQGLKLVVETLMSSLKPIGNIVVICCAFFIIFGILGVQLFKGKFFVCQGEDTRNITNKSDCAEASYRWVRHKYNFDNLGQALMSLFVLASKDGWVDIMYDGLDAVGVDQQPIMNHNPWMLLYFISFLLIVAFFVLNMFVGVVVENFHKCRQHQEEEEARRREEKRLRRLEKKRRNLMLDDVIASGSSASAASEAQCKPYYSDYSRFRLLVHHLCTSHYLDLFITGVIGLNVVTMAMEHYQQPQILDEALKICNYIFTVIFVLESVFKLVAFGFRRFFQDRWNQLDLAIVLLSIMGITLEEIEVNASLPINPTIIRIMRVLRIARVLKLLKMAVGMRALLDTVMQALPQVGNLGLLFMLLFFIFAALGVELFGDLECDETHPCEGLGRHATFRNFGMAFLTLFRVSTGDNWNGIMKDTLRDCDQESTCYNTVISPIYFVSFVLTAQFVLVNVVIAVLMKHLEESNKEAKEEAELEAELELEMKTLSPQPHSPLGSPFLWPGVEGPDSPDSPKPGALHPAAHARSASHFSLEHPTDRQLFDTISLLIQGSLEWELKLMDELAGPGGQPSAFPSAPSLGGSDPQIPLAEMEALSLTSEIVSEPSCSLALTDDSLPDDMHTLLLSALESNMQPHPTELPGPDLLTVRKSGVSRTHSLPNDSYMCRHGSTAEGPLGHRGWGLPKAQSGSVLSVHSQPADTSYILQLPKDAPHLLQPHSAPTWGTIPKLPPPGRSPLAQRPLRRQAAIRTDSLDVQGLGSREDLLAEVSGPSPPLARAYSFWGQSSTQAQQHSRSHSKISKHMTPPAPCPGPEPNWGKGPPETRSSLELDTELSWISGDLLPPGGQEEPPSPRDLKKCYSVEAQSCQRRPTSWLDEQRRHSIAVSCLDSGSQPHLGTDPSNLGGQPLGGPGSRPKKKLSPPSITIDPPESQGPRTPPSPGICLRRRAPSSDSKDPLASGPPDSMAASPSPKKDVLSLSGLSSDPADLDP

For the compound `CC(C)(C)NC(=O)CN1CCC2(CC1)C[C@H]2NC(=O)c1cc(Cl)cc(Cl)c1` (single isomer, unassigned) [Example 57, (R)—N-(6-(2-(tert-Butylamino)-2-oxoethyl)-6-azaspiro[2.5]octan-1-yl)-3,5-dichlorobenzamide or (S)—N-(6-(2-(tert-Butylamino)-2-oxoethyl)-6-azaspiro[2.5]octan-1-yl)-3,5-dichlorobenzamide], the IC50 on Cav3.1 was 0.13 µM; in experiment [1] it was over 30 µM; in the experiment with DRG ion channels Na+ it was 37.2 µM; in the experiment on DRG ion channels K+, over 100 µM.
`CC(C)(C)NC(=O)CN1CCC2(CC1)C[C@H]2NC(=O)c1cc(F)cc(Cl)c1` (single isomer, unassigned) [Example 129, (R)—N-(6-(2-(tert-Butylamino)-2-oxoethyl)-6-azaspiro[2.5]octan-1-yl)-3-chloro-5-fluorobenzamide or (S)—N-(6-(2-(tert-Butylamino)-2-oxoethyl)-6-azaspiro[2.5]octan-1-yl)-3-chloro-5-fluorobenzamide]: the 50% inhibitory concentration (IC50) is 1.04 µM against Cav3.1, over 30 µM in experiment [1], over 100 µM in the experiment with DRG ion channels Na+ and over 100 µM in the experiment with DRG ion channels K+.
Turning to `CC(C)(C)NC(=O)CN1CCC2(CC1)C[C@H]2NC(=O)c1cc(F)cc(C(F)(F)F)c1` (single isomer, unassigned) [Example 130, (R)—N-(6-(2-(tert-Butylamino)-2-oxoethyl)-6-azaspiro[2.5]octan-1-yl)-3-fluoro-5-(trifluoromethyl)benzamide or (S)—N-(6-(2-(tert-Butylamino)-2-oxoethyl)-6-azaspiro[2.5]octan-1-yl)-3-fluoro-5-(trifluoromethyl)benzamide], the IC50 is 0.11 µM on Cav3.1, over 30 µM in experiment [1], over 100 µM in the experiment on DRG ion channels Na+ and over 100 µM in the experiment on DRG ion channels K+.
In the case of `CC(C)(C)NC(=O)CN1CCC2(CC1)C[C@H]2C(=O)Nc1cc(C(F)(F)F)cc(C(F)(F)F)c1` (single isomer, unassigned) [Example 132, (R)—N-(3,5-Bis(trifluoromethyl)phenyl)-6-(2-(tert-butylamino)-2-oxoethyl)-6-azaspiro[2.5]octane-1-carboxamide or (S)—N-(3,5-Bis(trifluoromethyl)phenyl)-6-(2-(tert-butylamino)-2-oxoethyl)-6-azaspiro[2.5]octane-1-carboxamide], the half-inhibitory concentration (IC50) against Cav3.1 is 0.12 µM; in experiment [1], 3.1 µM; in the experiment with DRG ion channels Na+, 14.3 µM; in the experiment with DRG ion channels K+, over 100 µM.
In the same order, the values of `CC(C)(C)NC(=O)CN1CCC2(CC1)C[C@H]2NC(=O)c1cc(C(F)(F)F)cc(C(F)(F)F)c1` (single isomer, unassigned) [Example 144, ((R)—N-(6-(2-(tert-butylamino)-2-oxoethyl)-6-azaspiro[2.5]octan-1-yl)-3,5-bis(trifluoromethyl)benzamide or (S)—N-(6-(2-(tert-butylamino)-2-oxoethyl)-6-azaspiro[2.5]octan-1-yl)-3,5-bis(trifluoromethyl)benzamide] are 0.04 µM, 12.3 µM, 34.4 µM and over 30 µM.
The matching figures for `CC(C)(C)NC(=O)CN1CCC2(CC1)C[C@H]2NC(=O)C12CC3CC(CC(C3)C1)C2` (single isomer, unassigned) [Example 145, N—((R)-6-(2-(tert-butylamino)-2-oxoethyl)-6-azaspiro[2.5]octan-1-yl)adamantane-1-carboxamide or N—((S)-6-(2-(tert-butylamino)-2-oxoethyl)-6-azaspiro[2.5]octan-1-yl)adamantane-1-carboxamide]: 0.07 µM, 15.6 µM, over 30 µM and over 30 µM.
The matching figures for `CC(C)(C)CCN1CCC2(CC1)C[C@H]2NC(=O)c1cc(C(F)(F)F)cc(C(F)(F)F)c1` (single isomer, unassigned) [Example 146, (R)—N-(6-(3,3-dimethylbutyl)-6-azaspiro[2.5]octan-1-yl)-3,5-bis(trifluoromethyl)benzamide or (S)—N-(6-(3,3-dimethylbutyl)-6-azaspiro[2.5]octan-1-yl)-3,5-bis(trifluoromethyl)benzamide]: 0.12 µM, 2.5 µM, 8.7 µM and over 100 µM.
Consider `CC(C)(C)CCN1CCC2(CC1)C[C@H]2NC(=O)c1cc(C(F)(F)F)ccc1Cl` (single isomer, unassigned) [Example 147, (R)-2-Chloro-N-(6-(3,3-dimethylbutyl)-6-azaspiro[2.5]octan-1-yl)-5-(trifluoromethyl)benzamide or (S)-2-Chloro-N-(6-(3,3-dimethylbutyl)-6-azaspiro[2.5]octan-1-yl)-5-(trifluoromethyl)benzamide], for which the concentration for half-maximal inhibition (IC50) at Cav3.1 is 2.41 µM; in experiment [1], 5.6 µM; in the experiment on DRG ion channels Na+, 14.3 µM; in the experiment with DRG ion channels K+ it was over 100 µM.
The matching figures for `CC(C)(C)NC(=O)CN1CCC2(CC1)CC2NC(=O)c1cc(F)cc(Cl)c1` (centres unmarked) [Example 17, N-(6-(2-(tert-Butylamino)-2-oxoethyl)-6-azaspiro[2.5]octan-1-yl)-3-chloro-5-fluorobenzamide]: 0.29 µM, over 30 µM, over 100 µM and over 100 µM.
The matching figures for `CC(C)(C)CCN1CCC2(CC1)CC2NC(=O)c1cc(F)cc(Cl)c1` (centres unmarked) [Example 28, 3-Chloro-N-(6-(3,3-dimethylbutyl)-6-azaspiro[2.5]octan-1-yl)-5-fluorobenzamide]: 0.28 µM, 9.4 µM, 23.4 µM and about 100 µM.
Consider `CC(C)(C)NC(=O)CN1CCC2(CC1)CC2C(=O)Nc1cc(F)cc(C(F)(F)F)c1` (centres unmarked) [Example 141, 6-(2-(tert-Butylamino)-2-oxoethyl)-N-(3-fluoro-5-(trifluoromethyl)phenyl)-6-azaspiro[2.5]octane-1-carboxamide], for which the IC50 against Cav3.1 is 0.34 µM; in experiment [1], 5.1 µM; in the experiment with DRG ion channels Na+ it was over 30 µM; in the experiment with DRG ion channels K+, over 30 µM.
